Patent US9480674B2, “Method and composition for treating acne” (THESAN PHARMACEUTICALS, INC., priority 2012, dated 2016)
Entries after “also recorded” stand apart in the source; their conditions may differ. Like-named read-outs stand apart in the source and are kept apart here.

How the values were obtained:
[1] = test system: sebum; experiment: Sebosuppressive activity on human skin (sebumetric casual level, sebutape, clinical observation); assay type: in vivo, man; conditions: for Sebosuppressive activity in man (reduction in sebum): NSA-1, NSA-2, NSA-8, NSA-9 tested at 0.5%
Description: The sebum inhibition index is calculated by counting the number of mature and differentiated cells in relation to the total number of cells in the sebaceous glands. A decrease in mature and differentiated cells indicates blocking of sebogenesis. The effect on human skin is determined by sebumetric examination using what is known as the “casual level” (Dobrev (2007)).

[2] = test system: CYP1A1 expression in sebaceous glands; experiment: Focal expression of AhR activation (CYP1A1 immunohistochemistry) in sebaceous gland cell types of topically treated mouse ears
Excerpt: The embodiment described here entails treating the ears of C57BL/6 mice via the topical route, following established protocols to determine dose-response and time-response relationships, with sebum reducing AhR pathway agonists previously characterized for their in vivo activation of the receptor, using, for example the EROD and CALUX methods which are widely used in this field (see Table 1).
Following topical treatment, the ears are sampled, and CYP1A1 expression is examined by immunohistochemical analysis using a specific antibody.
The study diagrammed in FIG. 1 and for which photomicrographs are provided in FIG. 2 entailed treating mice daily for one week with a topical AhR pathway agonist, with ears taken for examination at Day 7. Ears were recovered and fixed in formalin, paraffin embedded and then sections were prepared and positioned on slides for immunohistochemical staining. The specific antibody used in this instance was rabbit anti-rat CYP1A1 polyclonal antibody (Millipore AB1247). The AhR pathway agonists used in the example in FIG. 2 were as follows: • 1B) 6-formylindolo[3,2-b]carbozole (NSA4/FICZ); • 2B) 8,13-Dihydroindolo[2′,3′:3,4]pyrido[2,1-b]quinazolin-5(7H)-one (NSA1/rutecarpine); • 3B) 3-phenyl-1H-benzo[f]chromen-1-one (NSA2); • 4B)_2,3,7,8-tetrachlorodibenzo-p-dioxin (NSA3/TCDD).
In addition to the particular topography of the isthmus region, these cells are characterized by the expression of L-RIG1, a marker of isthmic multi-potent clonogenic cells (Jensen et al. (2009),).

[3] = test system: FADS2, AWAT1, ELOVL3 mRNA; experiment: Real-Time QRT-PCR of mRNA of sebogenic enzymes in ears of mice treated for five weeks; assay type: in vivo, C57BL/6 mice; conditions: mouse ears, 0.5% in acetone (TCDD 0.0005%), vs vehicle
Excerpt: At the end of that time the animals were sacrificed and the ears removed for further analysis.

[4] = in vivo; cited from earlier work
[5] = test system: sebaceous glands; experiment: Dose effect in mice: sebosuppressive effect and tolerability of topical treatment of the ears; assay type: in vivo
Description: For these dose-effects tests, C57BL/6 mice were treated for three to five weeks, five days per week on the ears and in three concentrations, namely 0.1, 0.5, and 1% of NSA-2. The sebosuppressive effect was analyzed at the third week although expression thereof starts after one week.
Drug tolerability, in the absence of MADISH-type cyst production, was assessed after five weeks' treatment.

[6] = Blood assay by HPLC in topically treated mice; assay type: in vivo, C57BL/6 mice; conditions: 5 nM sensitivity
[7] = in rodents; Adedoyin et al. (1993); cited from earlier work
[8] = molecular target: T1, AhR (CYP1A1 induction) (Homo sapiens, UniProt P35869); experiment: EROD (ethoxyresorufin-O-deethylase) assay, CYP1A1 induction as reporter of AhR activation in vitro; assay type: cell-based; conditions: at 10 μM
T1 construct: endogenous in cells
T1 sequence (P35869 11-848): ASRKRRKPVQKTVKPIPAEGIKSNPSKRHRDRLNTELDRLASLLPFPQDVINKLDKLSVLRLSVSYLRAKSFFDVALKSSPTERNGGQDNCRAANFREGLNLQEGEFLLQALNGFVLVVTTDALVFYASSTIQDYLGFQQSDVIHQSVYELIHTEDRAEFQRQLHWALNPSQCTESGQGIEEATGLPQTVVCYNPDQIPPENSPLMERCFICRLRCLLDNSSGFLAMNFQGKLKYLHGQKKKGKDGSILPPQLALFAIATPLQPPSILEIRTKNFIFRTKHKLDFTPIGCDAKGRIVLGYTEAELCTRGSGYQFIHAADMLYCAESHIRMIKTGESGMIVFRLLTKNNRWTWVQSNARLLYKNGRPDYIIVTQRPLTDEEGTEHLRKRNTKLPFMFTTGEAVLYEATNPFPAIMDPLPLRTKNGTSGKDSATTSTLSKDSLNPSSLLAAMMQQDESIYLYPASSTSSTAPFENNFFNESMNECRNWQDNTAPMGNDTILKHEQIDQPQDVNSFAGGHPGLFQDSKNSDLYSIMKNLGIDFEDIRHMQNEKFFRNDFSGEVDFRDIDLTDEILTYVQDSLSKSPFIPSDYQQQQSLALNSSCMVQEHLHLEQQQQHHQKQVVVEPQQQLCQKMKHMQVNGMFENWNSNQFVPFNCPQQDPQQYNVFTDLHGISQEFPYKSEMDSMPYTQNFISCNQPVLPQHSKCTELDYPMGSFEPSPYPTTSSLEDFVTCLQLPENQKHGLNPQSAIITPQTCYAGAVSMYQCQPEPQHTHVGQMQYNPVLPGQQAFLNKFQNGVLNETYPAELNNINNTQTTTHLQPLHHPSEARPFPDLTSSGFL
Excerpt: As used herein, the term EROD refers to the ethoxyreorufin-O-deethylase (EROD) assay which monitors the induction of the xenobiotic-metabolizing enzyme cytochrome P-450 1A1(CYP1A1) and is a widely used as a reporter for measuring activation of the AhR in vitro (Zamaratskaia et al. (2009), Behnisch et al. (2001),)

Row | SMILES | Sebosuppressive activity in man (reduction in sebum) [1] | Activation of the AhR pathway (CYP1A1 staining) in the sebaceous cell sub-populations, stage reached ([2]; mouse, in vivo) | Inhibition of mRNA expression encoding the three sebogenic enzymes (FADS2, AWAT1, ELOVL3) [3] | further results
1 | O=c1c2ccccc2nc2n1CCc1c-2[nH]c2ccccc12 [NSA 1, 8,13-Dihydroindolo[2′,3′:3,4]pyrido[2,1-b]quinazolin-5(7H)-one] | potentially useful sebosuppressive activity in man when tested at the same concentrations (0.5%), although weaker than that of NSA-2 | activates the AhR pathway in two of the cell sub-populations in mice | – | –
2 | Clc1cc2c(cc1Cl)Oc1cc(Cl)c(Cl)cc1O2 [NSA 3, 2,3,7,8-tetrachlorodibenzo-p-dioxin] | strongest sebosuppressive activity in man | – | degree of specific gene suppression seen with NSA-2 is equivalent to that seen with the structurally unrelated compound NSA-3 | Activation of the AhR pathway (CYP1A1 staining) in the sebaceous cell sub-populations, stage reached ([2]; mice, topical, first week of treatment): activate the AhR pathway in the four cell sub-populations within a period of less than one week; half-life [4]: measureable in years
3 | O=c1cc(-c2ccccc2)oc2c1ccc1ccccc12 [NSA-8, 2-phenyl-4H-benzo[h]chromen-4-one] | neither 2-phenyl-4H-benzo[h]chromen-4-one nor 2-phenyl-4H-chromen-4-one exhibited any reduction in sebum | – | slightly stimulating effect | –
4 | O=Cc1c2c(cc3c1=Nc1ccccc1-3)=Nc1ccccc1-2 [NSA 4, 6-formylindolo[3,2-b]carbazole] | – | limited distribution in the sebaceous glands when compared with NSA-2 | – | –
5 | COc1ccc2nc([S@@+]([O-])Cc3ncc(C)c(OC)c3C)[nH]c2c1 [NSA 7, (S)-5-methoxy-2-[(4-methoxy-3,5-dimethylpyridin-2-yl)methylsulfinyl]-3H-benzoimidazole] | – | only activates the AhR receptor pathways in Stage One of the cell sub-populations | – | Sebosuppressive activity in man ([1]; tested at 8%): no sebosuppressive activity in man
6 | O=c1cc(-c2ccccc2)oc2ccc3ccccc3c12 [NSA 2, 3-phenyl-1H-benzo[f]chromen-1-one] | strongest sebosuppressive activity in man; also recorded: active in reducing sebum | activate the AhR pathway in the four cell sub-populations within a period of less than one week | major inhibition | Sebosuppressive effect in mice (active sebaceous glands, gland surface, ratios of sebocytes; FIGS. 5-8) ([5]; 0.1, 0.5 and 1%, ears, five days per week, analyzed at the third week): very marked effects; also recorded: a reduction in the differentiated compartment of the gland was observed; MADISH-type cystic lesions ([5]; after five weeks' treatment, any concentration tested): No cystic lesion were observed; Tolerability in mice ([5]; mouse, in vivo): good tolerability; Blood level by HPLC [6]: < 5 nM; half-life [7]: less than 45 mins; AhR activation in the standard EROD assay, % of the level of induction seen with 0.01 μM TCDD [8]: 10-20%
7 | O=c1cc(-c2ccccc2)oc2ccccc12 [NSA-9, 2-phenyl-4H-chromen-4-one] | neither 2-phenyl-4H-benzo[h]chromen-4-one nor 2-phenyl-4H-chromen-4-one exhibited any reduction in sebum | – | no significant effect | –
